17 compounds from patent publication US7205296B2, “Substituted 2H-1,3-benzoxazin-4(3H)-ones” (Portola Pharmaceuticals, Inc., priority 2004, dated 2007) can be followed below.

One test has as its target T1, platelet ADP receptors (Homo sapiens, UniProt Q9H244).
T1 construct: endogenous in cells; host or cells: whole apyrase-washed human platelets (outdated from blood banks, or fresh)
Briefly: ARB assay: inhibition of [3H]2-MeS-ADP binding to platelets. The settings on record: IC50 class, [3H]2-MeS-ADP binding to whole human platelets. On the procedure: II. Inhibition of [^3H]2-MeS-ADP Binding to Platelets
Utilizing the second assay the potency of inhibition of such compounds with respect to [^3H]2-MeS-ADP binding to whole platelets is determined. [^3H]2-MeS-ADP binding experiments are routinely performed with outdated human platelets collected by standard procedures at hospital blood banks. Apyrase-washed outdated platelets are prepared as follows (all steps at room temperature, if not indicated otherwise):
Outdated platelet suspensions are diluted with 1 volume of CGS and platelets pelleted by centrifugation at 1900×g for 45 minutes. Platelet pellets are resuspended at 3-6×10^9 platelets/ml in CGS containing 1 U/ml apyrase (grade V, Sigma, St. Louis, Mo.) and incubated for 15 minutes at 37° C. After centrifugation at 730×g for 20 minutes, pellets are resuspended in Hepes-Tyrode's buffer containing 0.1% BSA (Sigma, St. Louis, Mo.) at a concentration of 6.66×10^8 platelets/ml. Binding experiments are performed after >45 minutes resting of the platelets.
Alternatively, binding experiments are performed with fresh human platelets prepared as described in I. (Inhibition of ADP-Mediated Platelet Aggregation in vitro), except that platelets are resuspended in Hepes-Tyrode's buffer containing 0.1% BSA (Sigma, St. Louis, Mo.) at a concentration of 6.66×10^8 platelets/ml. Very similar results are obtained with fresh and outdated platelets.
A platelet ADP receptor binding assay using the tritiated potent agonist ligand [^3H]2-MeS-ADP (Jantzen, H. M. et al. (1999) Thromb. Hemost. 81:111–117) has been adapted to the 96-well microtiter format. In an assay volume of 0.2 ml Hepes-Tyrode's buffer with 0.1% BSA and 0.6% DMSO, 1×10^8 apyrase-washed platelets are preincubated in 96-well flat bottom microtiter plates for 5 minutes with serial dilutions of test compounds before addition of 1 nM [^3H]2-MeS-ADP ([^3H]2-methylthioadenosine-5′-diphosphate, ammonium salt; specific activity 48–49 Ci/mmole, obtained by custom synthesis from Amersham Life Science, Inc., Arlington Heights, Ill., or NEN Life Science Products, Boston, Mass.). Total binding is determined in the absence of test compounds. Samples for nonspecific binding may contain 10^−5 M unlabelled 2-MeS-ADP (RBI, Natick, Mass.). After incubation for 15 minutes at room temperature, unbound radioligand is separated by rapid filtration and two washes with cold (4–8° C.) Binding Wash Buffer (10 mM Hepes pH 7.4, 138 mM NaCl) using a 96-well cell harvester (Minidisc 96, Skatron Instruments, Sterling, Va.) and 8×12 GF/C glassfiber filtermats (Printed Filtermat A, for 1450 Microbeta, Wallac Inc., Gaithersburg, Md.). The platelet-bound radioactivity on the filtermats is determined in a scintillation counter (Microbeta 1450, Wallac Inc., Gaithersburg, Md.). Specific binding is determined by […] binding, and specific binding in the presence of test compounds is expressed as % of specific binding in the absence of test compounds dilutions.

Test [1] relates to ADP-induced human platelet aggregation. Briefly: PRP assay: inhibition of ADP-mediated platelet aggregation in vitro. The format is cell-based. To be noted: IC50 class. On the procedure: I. Inhibition of ADP-Mediated Platelet Aggregation in vitro
The effect of testing the compound according to the invention on ADP-induced human platelet aggregation is preferably assessed in 96-well microtiter assay (see generally the procedures in Jantzen, H. M. et al. (1999) Thromb. Hemost. 81:111–117). Human venous blood is collected from healthy, drug-free volunteers into ACD (85 mM sodium citrate, 111 mM glucose, 71.4 mM citric acid) containing PGI2 (1.25 ml ACD containing 1.6 μM PGI2/10 ml blood; PGI2 was from Sigma, St. Louis, Mo.). Platelet-rich plasma (PRP) is prepared by centrifugation at 160×g for 20 minutes at room temperature. Washed platelets are prepared by centrifuging PRP for 10 minutes at 730×g and resuspending the platelet pellet in CGS (13 mM sodium citrate, 30 mM glucose, 120 mM NaCl; 2 ml CGS/10 ml original blood volume) containing 1 U/ml apyrase (grade V, Sigma, St. Louis, Mo.). After incubation at 37° C. for 15 minutes, the platelets are collected by centrifugation at 730×g for 10 minutes and resuspended at a concentration of 3×10^8 platelets/ml in Hepes-Tyrode's buffer (10 mM Hepes, 138 mM NaCl, 5.5 mM glucose, 2.9 mM KCl, 12 mM NaHCO3, pH 7.4) containing 0.1% bovine serum albumin, 1 mM CaCl2 and 1 mM MgCl2. This platelet suspension is kept >45 minutes at 37° C. before use in aggregation assays.
Inhibition of ADP-dependent aggregation is preferably determined in 96-well flat-bottom microtiter plates using a microtiter plate shaker and plate reader similar to the procedure described by Frantantoni et al., Am. J. Clin. Pathol. 94, 613 (1990). All steps are performed at room temperature. The total reaction volume of 0.2 ml/well includes in Hepes-Tyrodes buffer/0.1% BSA: 4.5×10^7 apyrase-washed platelets, 0.5 mg/ml human fibrinogen (American Diagnostica, Inc., Greenwich, Conn.), serial dilutions of test compounds (buffer for control wells) in 0.6% DMSO. After about 5 minutes preincubation at room temperature, ADP is added to a final concentration of 2 μM which induces submaximal aggregation. Buffer is added instead of ADP to one set of control wells (ADP^− control). The OD of the samples is then determined at 490 nm using a microtiter plate reader (Softmax, Molecular Devices, Menlo Park, Calif.) resulting in the 0 minute reading. The plates are then agitated for 5 min on a microtiter plate shaker and the 5 minute reading is obtained in the plate reader. Aggregation is calculated from the decrease of OD at 490 nm at t=5 minutes compared to t=0 minutes and is expressed as % of the decrease in the ADP control samples after correcting for changes in the unaggregated control samples.

T1 sequence (Q9H244 whole entry): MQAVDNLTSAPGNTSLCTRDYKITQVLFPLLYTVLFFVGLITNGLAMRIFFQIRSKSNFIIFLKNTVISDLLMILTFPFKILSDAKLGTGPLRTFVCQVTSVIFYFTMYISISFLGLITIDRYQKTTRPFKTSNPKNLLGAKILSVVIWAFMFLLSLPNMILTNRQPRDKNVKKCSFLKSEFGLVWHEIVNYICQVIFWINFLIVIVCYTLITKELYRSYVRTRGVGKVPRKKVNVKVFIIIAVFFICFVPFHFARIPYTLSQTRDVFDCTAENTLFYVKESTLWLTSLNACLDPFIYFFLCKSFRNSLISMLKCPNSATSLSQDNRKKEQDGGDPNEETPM

Regarding `CNc1cc2c(cc1F)C(=O)N(c1ccc(NC(=O)NS(=O)(=O)c3ccc(Cl)s3)cc1)CO2` [Example 5, 1-(5-chlorothiophen-2-ylsulfonyl)-3-(4-(6-fluoro-7-(methylamino)-4-oxo-2H-benzo[e][1,3]oxazin-3(4H)-yl)phenyl)urea], the IC50 is less than 50 nM at platelet ADP receptors and less than 10 µM in test [1].

With `CNc1cc2c(cc1F)C(=O)N(c1ccc(NC(=O)NS(=O)(=O)c3ccc(Cl)s3)c(C)c1)CO2` [Example 10, 1-(5-chlorothiophen-2-ylsulfonyl)-3-(4-(6-fluoro-7-(methylamino)-4-oxo-2H-benzo [e][1,3]oxazin-3(4H)-yl)-2-methylphenyl)urea], the values for the IC50 (at platelet ADP receptors; in test [1]) were 50 to 500 nM and 10 to 30 µM, respectively.

With `CNc1cc2c(cc1F)C(=O)N(c1ccc(NC(=O)NS(=O)(=O)c3ccc(Cl)s3)cc1OC)CO2` [Example 15, 1-(5-chlorothiophen-2-ylsulfonyl)-3-(4-(6-fluoro-7-(methylamino)-4-oxo-2H-benzo [e][1,3]oxazin-3(4H)-yl)-3-methoxyphenyl)urea], the figures for the IC50 (at platelet ADP receptors; in test [1]) were less than 50 nM and less than 10 µM, respectively. Regarding `CCOCCOc1cc(NC(=O)NS(=O)(=O)c2ccc(Cl)s2)ccc1N1COc2cc(NC)c(F)cc2C1=O` [Example 20, 1-(5-chlorothiophen-2-ylsulfonyl)-3-(3-(2-ethoxyethoxy)-4-(6-fluoro-7-(methylamino)-4-oxo-2H-benzo[e][1,3]oxazin-3(4H)-yl)phenyl)urea], at platelet ADP receptors, the IC50 is more than 500 nM. Still for that read-out and setting: as for `CNc1cc2c(cc1F)C(=O)N(c1ccc(NC(=O)NS(=O)(=O)c3ccc(Cl)s3)cc1OCCN(C)C)CO2` [Example 25, 1-(5-chlorothiophen-2-ylsulfonyl)-3-(3-(2-(dimethylamino)ethoxy)-4-(6-fluoro-7-(methylamino)-4-oxo-2H-benzo[e][1,3]oxazin-3(4H)-yl)phenyl)urea], the figure is more than 500 nM.

In the case of `CNc1cc2c(cc1F)C(=O)N(c1cc(C)c(NC(=O)NS(=O)(=O)c3ccc(Cl)s3)c(C)c1)CO2` [Example 26, (5-chlorothiophen-2-ylsulfonyl)-3-(4-(6-fluoro-7-(methylamino)-4-oxo-2H-benzo[e][1,3]oxazin-3(4H)-yl)-2,6-dimethylphenyl)urea], the results for the IC50 (on platelet ADP receptors; in test [1]) were less than 50 nM and less than 10 µM, respectively. In the same order, the values of `CNc1cc2c(cc1F)C(=O)N(c1ccc(NC(=O)NS(=O)(=O)c3ccc(Cl)s3)c(OC)c1)CO2` [Example 27, 1-(5-chlorothiophen-2-ylsulfonyl)-3-(4-(6-fluoro-7-(methylamino)-4-oxo-2H-benzo[e][1,3]oxazin-3(4H)-yl)-2-methoxyphenyl)urea] are less than 50 nM and more than 30 µM.

Regarding `CNc1cc2c(cc1F)C(=O)N(c1ccc(NC(=O)NS(=O)(=O)c3ccc(Cl)s3)c(OCCOC)c1)CO2` [Example 28, 1-(5-chlorothiophene-2-ylsulfonyl)-3-(4-(6-fluoro-7-(methylamino)-4-oxo-2H-benzo[e][1,3]oxazin-3(4H)-yl)-2-(2-methoxyethoxy)phenyl)urea], the IC50 at platelet ADP receptors was less than 50 nM; in test [1], less than 10 µM.

On to `CNc1cc2c(cc1F)C(=O)N(c1ccc(NC(=O)NS(=O)(=O)c3ccc(Cl)s3)c(OCCN(C)C)c1)CO2` [Example 34], for which the IC50 on platelet ADP receptors was 50 to 500 nM; in test [1], 10 to 30 µM.

With `CNc1cc2c(cc1F)C(=O)N(c1ccc(NC(=O)NS(=O)(=O)c3ccc(Cl)s3)c(C(=O)N(C)C)c1)CO2` [Example 37, 1-(5-chlorothiophen-2-ylsulfonyl)-3-(2-(dimethylcarbamoyl)-4-(6-fluoro-7-(methylamino)-4-oxo-2H-benzo[e][1,3]oxazin-3(4H)-yl)phenyl)urea], at platelet ADP receptors, the IC50 was 50 to 500 nM.

`CNc1cc2c(cc1F)C(=O)N(c1ccc(NC(=O)NS(=O)(=O)c3ccc(Cl)s3)c(C(N)=O)c1)CO2` [Example 39, 1-(2-carbamoyl-4-(6-fluoro-7-(methylamino)-4-oxo-2H-benzo[e][1,3]oxazin-3(4H)-yl)phenyl)-3-(5-chlorothiophen-2-ylsulfonyl)urea]: the IC50 on platelet ADP receptors was less than 50 nM; in test [1], less than 10 µM.

In the case of `CNc1cc2c(cc1F)C(=O)N(c1ccc(NC(=O)NS(=O)(=O)c3ccc(Cl)s3)nc1)CO2` [Example 41, 1-(5-chlorothiophen-2-ylsulfonyl)-3-(5-(6-fluoro-7-(methylamino)-4-oxo-2H-benzo[e][1,3]oxazin-3(4H)-yl)pyridin-2-yl)urea], the IC50 was less than 50 nM at platelet ADP receptors and less than 10 µM in test [1]. Taken in the same sequence, the figures for `CNc1cc2c(cc1F)C(=O)N(c1cnc(NC(=O)NS(=O)(=O)c3ccc(Cl)s3)c(C)c1)CO2` [Example 42, 1-(5-chlorothiophen-2-ylsulfonyl)-3-(5-(6-fluoro-7-(methylamino)-4-oxo-2H-benzo [e][1,3]oxazin-3(4H)-yl)-3-methylpyridin-2-yl)urea] were less than 50 nM and less than 10 µM. In the same order, the values of `CNc1cc2c(cc1F)C(=O)N(c1ccc(NC(=O)NS(=O)(=O)c3ccc(C)s3)nc1)CO2` [Example 43] are less than 50 nM and less than 10 µM. In the same order, the values of `CNc1cc2c(cc1F)C(=O)N(c1ccc(NC(=O)NS(=O)(=O)c3ccc(OC)s3)nc1)CO2` [Example 44, 1-(5-(6-fluoro-7-(methylamino)-4-oxo-2H-benzo[e][1,3]oxazin-3(4H)-yl)pyridin-2-yl)-3-(5-methoxythiophen-2-ylsulfonyl)urea] are 50 to 500 nM and more than 30 µM. For the compound `CNc1cc2c(cc1F)C(=O)N(c1ccc(NC(=O)NS(=O)(=O)c3ccc(OC)s3)cc1)CO2` [Example 45], the IC50 at platelet ADP receptors is less than 50 nM; in test [1] it was more than 30 µM. Taken in the same sequence, the figures for `CNc1cc2c(cc1F)C(=O)N(c1ccc(NC(=O)NS(=O)(=O)c3ccc(C)s3)cc1)CO2` [Example 46, 1-(4-(6-fluoro-7-(methylamino)-4-oxo-2H-benzo[e][1,3]oxazin-3(4H)-yl)-3-5-methylthiophen-2ylsulfonyl)urea] were less than 50 nM and 10 to 30 µM.

A word on the IC50: it is the point on the concentration scale where inhibition reaches its midpoint. A higher IC50 goes with lower potency.
